From patent publication US20150119317A1, “ORAL SOLID DOSAGE FORMULATION OF 1,1-DIMETHYLETHYL [(1S)-1-CARBAMOYL)PYRROLIDIN-1-YL]CARBONYL}-2,2-DIMETHYLPROPYL]CARBAMATE” (BRISTOL-MYERS SQUIBB COMPANY, priority 2012, published 2015)

Assay: Bioequivalence study: PK of wet and dry granulated tablets in a dog model
Type: in vivo
Details: fed state with 50 ml high-fat meal substitute
Procedure: A study was conducted to compare conventional tablet dosage forms. The goal of the study was to assess the in vivo performance of various prototypes of conventional tablet dosage forms (wet and dry granulated tablets) in a dog model.
The following five formulations were tested: […]
1. Phase 2 Clinical (dry granulated (DG)) tablet 2×200 mg.
2. Wet granulated (WG) Vitamin E TPGS/poloxamer tablet: 50% w/w Compound I+4.67% w/w Vitamin E TPGS+4% w/w poloxamer+14.33% w/w microcrystalline cellulose+15% lactose monohydrate+11.5% w/w croscarmellose sodium+0.5% w/w magnesium stearate; 2×200 mg (Corresponds to the formulation shown above in Table 1).
3. WG poloxamer tablet: 50% w/w Compound I+2% w/w polyvinyl pyrrolidone+4% w/w poloxamer+16% microcrystalline cellulose+16% w/w lactose monohydrate+11.5% w/w croscarmellose sodium+0.5% w/w magnesium stearate; 2×200 mg (Corresponds to the formulation shown above in Table 5).
4. Amorphous API tablet: 50% w/w Compound I+41.25% w/w microcrystalline cellulose+5% w/w croscarmellose sodium+2% w/w silicon dioxide+1% w/w sodium lauryl sulphate+0.75% w/w magnesium stearate; 2×200 mg.
5. Solution Formulation: Polyethylene glycol 400:EtOH: polysorbate 80 (50:35:15), 20 mg/mL.
The protocol used was as follows:
[…] For food-effect studies in the fed state, dogs were given 50 ml high-fat meal substitute instead of water.

C=C[C@@H]1C[C@]1(NC(=O)[C@@H]1C[C@@H](Oc2ncc(OC)c3ccc(Cl)cc23)CN1C(=O)[C@@H](NC(=O)OC(C)(C)C)C(C)(C)C)C(=O)NS(=O)(=O)C1CC1 [Compound I, 1,1-dimethylethyl[(1S)-1-{[(2S,4R)-4-(7-chloro-4methoxyisoquinolin-1-yloxy)-2-({(1R,2S)-1-[(cyclopropylsulfonyl)carbamoyl]-2-ethenylcyclopropyl}carbamoyl)pyrrolidin-1-yl]carbonyl}-2,2-dimethylpropyl]carbamate]
food effect: significant positive food effect
